Patent US12171884B2, “Mesoporous silica nanoparticles with lipid bilayer coating for cargo delivery” (priority 2016, dated 2024)
“Also recorded” adds a separate entry of the source. Counter-ions that a name gives are not always drawn.

Key:
PDAC = PDAC patients; cited from earlier work
[1] = tested on: KPC-derived orthotopic tumor; conditions: mouse, in vivo
Text: This stringent PDAC tumor model mimics human PDAC for oncogene expression, growth characteristics, metastasis, histological features and development of a dysplastic stroma. […] Imaging intensity was quantified by IVIS Lumina Living Image software.

[2] = tested on: patient-derived PDAC xenograft XWR #187; conditions: mouse, in vivo, 50 mg/kg
[3] = Acute histological analysis after single IV dose (Example 2); conditions: 60 mg/kg single IV, 24 hours; for kidney histology: hydrochloride trihydrate
BxPC-3 cells = test: MTS cytotoxicity assay; type: cell-based; conditions: BxPC3, incremental irinotecan concentrations, 24-72 hours
[4] = Maximum tolerated dose (NCI protocol); conditions: male, BALB/c, mouse, in vivo; Example 1; healthy mice, IV, validated in six mice over 15 days
Protocol: . Two healthy male BALB/c mice were IV injected with a 50 mg/kg (C1 dose) equivalent of free or encapsulated irinotecan. This was followed by a dose escalation factor of 1.8 to obtain the Cn dose, which results in animal death within 24 h after the last administration. The second round of dose-seeking began with the Cn-1 dose and utilized a 1.15 escalation factor (n=2) to find the MTD, which is defined as the absence of mortality or morbidity. The MTD was validated by injecting six mice, which were followed for 15 days to determine the absence of morbidity, mortality, or >15% weight loss.
. Two healthy male BALB/c mice were IV injected with 50 mg/kg (C1 dose) free or encapsulated drug. We then used a dose escalation factor of 1.8 to determine the Cn dose where both animals (n=2) died within 24 hours. After treatment with free or encapsulated irinotecan. The second round of dose-seeking began with Cn-1 dose, and utilized a 1.15 escalation factor (n=2) to find the MTD, where there was no mortality or serious morbidity. The MTD was further validated by injecting […], and following them for 15 days to ascertain that there was no morbidity, mortality or […]. […].

[5] = Bone marrow toxicity and differential white cell count; type: in vivo, mice; conditions: 40 mg/kg IV x3, 2 days apart; listed as free drug, hydrochloride trihydrate
Protocol: Bone marrow toxicity was studied in a separate experiment, in which animals received three injections of a 40 mg/kg irinotecan dose equivalent, as described above. After sacrifice, sternal bone marrow was collected to evaluate myelotoxicity by H&E staining (FIG. 4D) (Iusuf et al. (2014) Mol. Cancer Ther. 13: 492-503).

[6] = human, in vivo; cited from earlier work
[7] = Liver and intestinal toxicity (H&E, cleaved caspase-3 IHC); conditions: animals of efficacy study, 40 mg/kg every 4 days
[8] = tested on: KPC-derived orthotopic tumors; test: Efficacy assessment in KPC-derived orthotopic model; conditions: 40 mg/kg IV every 4 days
PANC-1 cells = test: MTS cytotoxicity assay; type: cell-based; conditions: PANC-1, incremental irinotecan concentrations, 24-72 hours

## Nc1ccn([C@@H]2O[C@H](CO)[C@@H](O)C2(F)F)c(=O)n1 [GEM, gemcitabine]
PDAC
  response rate: 9.4%
  survival: 6.8 months

## N=C(N)NCCC[C@@H]1NC(=O)[C@@H](N)CSSC[C@@H](C(=O)O)NC(=O)[C@H](CC(=O)O)NC(=O)[C@@H]2CCCN2C(=O)CNC(=O)[C@H](CCCCN)NC(=O)[C@H](CC(=O)O)NC(=O)CNC1=O [iRGD]
[1]
  enhancement of silicasome uptake at orthotopic tumor site by co-administration: 3-4 fold
  intratumoral particle abundance and traveling distance from blood vessels: most effective strategy to enhance silicasome uptake
[2]
  increase of NIR intensity at the tumor site: 50%

## CCc1c2c(nc3ccc(OC(=O)N4CCC(N5CCCCC5)CC4)cc13)-c1cc3c(c(=O)n1C2)COC(=O)[C@]3(O)CC [free irinotecan, Irinotecan hydrochloride trihydrate]
[3]
  bone marrow toxicity (H&E histology): Severe bone marrow damage and apoptosis
[3]; listed as Free irinotecan
  kidney histology: nephrotoxicity
[3]; listed as free IRIN
  kidney histology: swelling and edema of Bowman's space
BxPC-3 cells
  cell killing (MTS): more effective in killing over 24 hours
[4]
  MTD at 15 days: 60 mg/kg
[5]
  peripheral blood neutrophil count: significant decrease of the absolute neutrophil count; also recorded: peripheral blood neutropenia
[6]
  G.I.T. adverse effects (vomiting, diarrhea, nausea, anorexia): ~50 % of patients
  incidence of neutropenia: ~60%
[7]
  liver histology (H&E): severe and extensive hepatocyte necrosis
[8]
  effect on metastasis (ex vivo bioluminescence): failed to affect metastasis
PANC-1 cells
  cell killing (MTS): more effective in killing over 24 hours

## FOLFIRINOX
PDAC
  response rate: 31.6%
  survival: ~11 months
